Source: US9487482B2, “3,4,5-trimethoxystyrylarylaminopropenones as potential anticancer agents” (Council of Scientific and Industrial Research, priority 2014, dated 2016)

Legend:
[1] = test system: A549, HeLa, MCF-7 and HCT116 cells; assay: In vitro cytotoxicity, MTT assay, summary over all four cancer cell lines; assay type: cell-based; conditions: Homo sapiens, range over the group of compounds and the four cell lines, read-out: IC50 value range towards all the cancer cell lines
Description: (§1) All cell lines used in this study were purchased from the American Type Culture Collection (ATCC, United States). A549, MCF-7, and HeLa were grown in Dulbecco's modified Eagle's medium (containing 10% FBS in a humidified atmosphere of 5% CO2 at 37° C.). HCT116 cells were cultured in Eagle's minimal essential medium (MEM) containing non-essential amino acids, 1 mM sodium pyruvate, […] bovine insulin, and 10% FBS. Cells were trypsinized when sub-confluent from T25 flasks/60 mm dishes and seeded in 96-well plates. The synthesized test compounds were evaluated for their in vitro antiproliferative in four different human cancer cell lines. A protocol of 48 h continuous drug exposure was used, and a MTT cell proliferation assay was used to estimate cell viability or growth. The cell lines were grown in their respective media containing 10% fetal bovine serum and were seeded into 96-well microtiter plates in 200 μL, aliquots at plating densities depending on the doubling time of individual cell lines. The microtiter plates were incubated at 37° C., 5% CO2, 95% air, and 100% relative humidity for 24 h prior to addition of experimental drugs. Aliquots of 2 μL, of the test compounds were added to the wells already containing 198 μL, of cells, resulting in the required final drug concentrations. For each compound, four concentrations (1, 10, 100, and 1000 μM) were evaluated, and each was done in triplicate wells. Plates were incubated further for 48 h, and the assay was terminated by the addition of 10 μL, of 5% MTT and incubated for 60 min at 37° C. Later, the plates were air-dried. Bound stain was subsequently eluted with 100 μL, of DMSO, and the absorbance was read on an multimode plate reader (Tecan M200) at a wavelength of 560 nm. Percent growth was calculated on a plate by plate basis for test wells relative to control wells. The above determinations were repeated thrice. The growth inhibitory effects of the compounds were analyzed by generating dose response curves as a plot of the percentage surviving cells versus compound concentration. The sensitivity of the cancer cells to the test compound was expressed in terms of IC50, a value defined as the concentration of compound that produced 50% reduction as compared to the control absorbance. (A. S. Kumar, M. A. Reddy, N. Jain, C. Kishor, T. R. Murthy, D. Ramesh, B. Supriya, A. Addlagatta, S. V. Kalivendi, B. Sreedhar. Eur. J. Med. Chem. 60 (2013) 305-24).

A549 cells = assay: In vitro cytotoxicity, MTT assay, A549; assay type: cell-based, human; conditions: Homo sapiens, A549 (non-small cell lung cancer), 48 h continuous drug exposure
Description: as §1

HeLa cells = assay: In vitro cytotoxicity, MTT assay, HeLa; assay type: cell-based, human; conditions: Homo sapiens, HeLa (cervical carcinoma), 48 h continuous drug exposure
Description: as §1

HCT116 cells = assay: In vitro cytotoxicity, MTT assay, HCT116; assay type: cell-based, human; conditions: Homo sapiens, HCT-116, HCT116 (colon carcinoma), 48 h continuous drug exposure
Description: as §1

MCF-7 cells = assay: In vitro cytotoxicity, MTT assay, MCF-7; assay type: cell-based, human; conditions: Homo sapiens, MCF7, 48 h, MCF-7 (breast cancer), 48 h continuous drug exposure
Description: as §1

tubulin = conditions: by binding at colchicine binding site; Simoni et al., J. Med. Chem. 2008; cited from earlier work

For COc1ccc(C(=O)/C=C\Nc2c(/C=C\c3cc(OC)c(OC)c(OC)c3)ccc(OC)c2O)cc1[N+](=O)[O-] [Compound 16t, (Z)-3-((2-hydroxy-3-methoxy-6-((Z)-3,4,5-trimethoxystyryl)phenyl)amino)-1-(4-methoxy-3-nitrophenyl)prop-2-en-1-one], the IC50 [1] was 180 to 7330 nM, the IC50 (A549 cells) was 7.33 µM and the IC50 (HeLa cells) was 1.66 µM. It also gave an IC50 (HCT116 cells) of 3.98 µM and an IC50 (MCF-7 cells) of 0.6 µM.

In the case of COc1ccc(C(=O)/C=C\Nc2c(/C=C\c3cc(OC)c(OC)c(OC)c3)ccc(OC)c2O)cc1N [Compound 16u], the IC50 [1] is reported as 180 to 7330 nM, the IC50 (A549 cells) is reported as 1.32 µM and the IC50 (HeLa cells) is reported as 2.51 µM. The IC50 (HCT116 cells) was 1.74 µM and the IC50 (MCF-7 cells) was 0.18 µM.

For COc1ccc(/C=C\c2cc(OC)c(OC)c(OC)c2)c(N/C=C\C(=O)c2cc(OC)c(OC)c(OC)c2)c1O [Compound 16x, (Z)-3-((2-hydroxy-3-methoxy-6-((Z)-3,4,5-trimethoxystyryl)phenyl)amino)-1-(3,4,5-trimethoxyphenyl)prop-2-en-1-one], the IC50 [1] was 180 to 7330 nM, the IC50 (A549 cells) was 0.25 µM and the IC50 (HeLa cells) was 0.56 µM. The IC50 (HCT116 cells) was 3.63 µM and the IC50 (MCF-7 cells) was 0.23 µM.

In the case of COc1ccc(/C=C\c2cc(OC)c(OC)c(OC)c2)c(N/C=C\C(=O)c2cc(OC)c(OC)c(OC)c2Br)c1O [Compound 16y, (Z)-1-(2-bromo-3,4,5-trimethoxyphenyl)-3-((2-hydroxy-3-methoxy-6-((Z)-3,4,5-trimethoxystyryl)phenyl)amino)prop-2-en-1-one], the IC50 [1] is reported as 180 to 7330 nM, the IC50 (A549 cells) is reported as 7.08 µM and the IC50 (HeLa cells) is reported as 1.78 µM. For the same compound, the IC50 (HCT116 cells) was 2.69 µM and the IC50 (MCF-7 cells) was 0.19 µM.

With COc1cc(/C=C\c2ccc(OC)c(N)c2)cc(OC)c1 [S4 (Ca-4 amine), (Z)-5-(3,5-dimethoxystyryl)-2-methoxyaniline, reference compound] the IC50 (A549 cells) was 1.78 µM, the IC50 (HeLa cells) was 0.58 µM and the IC50 (HCT116 cells) was 1.62 µM. For the same compound, the “inhibited tubulin polymerization, compared with CA-4” value (tubulin) was “five times stronger than CA-4” and the IC50 (MCF-7 cells) was 4.07 µM.
